Measurements from US20250387481A1, “PRE-TREATED T CELLS FOR USE AS A MEDICAMENT” (STICHTING HET NEDERLANDS KANKER INSTITUUT-ANTONI VAN …, priority 2022, published 2025).

Legend:
tumor-reactive T cells = assay: Tumor recognition assay and viability of patient-derived tumor-reactive T cells; assay type: cell-based, human; conditions: 10 nmol/L docetaxel
Experimental: Tumor-reactive patient T cells were generated by co-culturing PBMCs and autologous tumor organoids as described previously (Dekkers, J. F., et al. Nat Protoc, 2021. 16(4): p. 1936-1965; Cattaneo, C. M., et al. Nat Protoc, 2020. 15(1): p. 15-39). In brief, following incubation with 200 ng/ml IFNγ for 24 hr, patient tumor organoids were dissociated into single cell suspensions using TripLE Express. Tumor organoid cells were mixed with patient PBMCs ([…]) and […] were seeded in each well of a U-bottom 96-well plate pre-coated with 5 μg/ml αCD28 antibody. Co-culture medium consisted of RPMI 1640 supplemented with 2 mmol/L Ultraglutamine I, penicillin/streptomycin, 10% human AB serum, 150 U/ml rh-IL-2 and 20 μg/ml αPD1 blocking antibody (Merus, The Netherlands). Medium, IL-2 and αPD1 were refreshed every 2-3 days. PBMCs were harvested and re-stimulated every 7 days by re-plating with fresh tumor organoid cells. After two weeks of co-culture, PBMCs were harvested and used for downstream analysis or cryopreserved for later use.
Tumor-reactive PBMC were thawed in pre-warmed T cells medium and incubated for 15 minutes with 25 U/mL Benzonase. After washing, cells were re-suspended at 2−3×10^6 cells/ml in T cell medium and cultured overnight at 37° C. T cell medium consisted of RPMI 1640 supplemented with 2 mmol/L Ultraglutamine I, penicillin/streptomycin, 10% human AB serum and 150 U/ml rh-IL-2. The day after, PBMC were incubated with (or without) 10 nmol/L docetaxel for 48 h.
For evaluation of tumor reactivity, […] were re-stimulated with autologous tumor organoids or autologous healthy organoids (isolated from Geltrex for 48 h and stimulated with 200 ng/ml IFNγ for 24 h, as described in (Dekkers, J. F., et al. Nat Protoc, 2021. 16(4): p. 1936-1965; Cattaneo, C. M., et al. Nat Protoc, 2020. 15(1): p. 15-39; Voorwerk, L., et al. Nat Med, 2019. 25(6): p. 920-928) at a 2:1 effector: target ratio and seeded in αCD28 coated plates in the presence of 20 μg/ml αPD1 and co-cultured for 24 hours. At the end of the 24 h, 50 μl of the assay supernatant were taken on the side and used for the quantification of the secreted IFNγ. To this purpose, the Human IFN-γ Flex Set (BD bioscience) was used in accordance with the manufacturer's instructions. For the evaluation of CD137 expression, at the end of the 24 h, cells were washed twice in FACS buffer and stained with the following antibodies: αCD3 PerCPCy5.5, αCD4 FITC, αCD8 BV421, αCD137 APC, and near IR viability dye for 30 minutes at 4° C. in the dark. […] Cells were then washed twice with FACS buffer and recorded with a Becton Dickinson Fortessa or LSRII flow cytometer.

[1] = tested on: human lung tumor organoids; assay: Tumor organoids killing assay with autologous tumor-reactive T cells; assay type: cell-based; conditions: tumor-reactive T cells pre-treated with 10 nmol/L docetaxel
Experimental: To express luciferase in the tumor organoids, we used pLenti CMV Puro LUC (w168-1; Plasmid #17477; Addgene). Tumor-reactive PBMC were thawed in pre-warmed T cell medium and incubated for 15 minutes with 25 U/ml Benzonase. After washing, cells were re-suspended at 2−3×10^6 cells/ml in T cell medium and cultured overnight at 37° C. The day after, PBMC were incubated with (or without) 10 nmol/L docetaxel for 48 hr. To determine the sensitivity of tumor and healthy organoids to T cell-mediated killing, flatbottom non-tissue culture treated plates were coated with 5 μg/ml αCD28 and kept at 4° C. overnight prior to co-culture. Tumor organoids were previously transduced with luciferase reporter gene. Organoids were isolated from Geltrex 48 hours prior to co-culture and stimulated with 200 ng/ml IFNγ for 24 hr prior to co-culture. The next day, part of the organoids was dissociated to single cells and counted using a hemocytometer. […] At the end of the 72 hours, tumor and healthy organoids viability in the different conditions was evaluated by microscopy, taking bright-field pictures at 5 and 10× magnification. Tumor cell viability in the different conditions was also measured by luciferase reporter assay using 3 μg/mL luciferin. Luminescence was measured with a Tecan reader (1,000 ms exposure).

Compound: CC(=O)O[C@@]12CO[C@@H]1C[C@H](O)[C@@]1(C)C(=O)[C@H](O)C3=C(C)[C@@H](OC(=O)[C@H](O)[C@@H](NC(=O)OC(C)(C)C)c4ccccc4)C[C@@](O)([C@@H](OC(=O)c4ccccc4)[C@H]21)C3(C)C [docetaxel]
- IFNγ secretion by T cells (tumor-reactive T cells): did not enhance IFNγ secretion
- T cell viability (tumor-reactive T cells): did not significantly alter T cell viability
- ability of T cells to recognize tumor organoids (CD137) (tumor-reactive T cells): did not increase
- expression of CD137, CD107 or PD1 (tumor-reactive T cells): did not increase
- anti-tumor capacity against tumor organoids (organoid viability, luciferase) [1]: increased their anti-tumor capacity
